Activity calls are given as the source filed them. The rule behind the calls is not given here.
How the values were obtained:
SH-SY5Y [1] = assay: Neuroprotective activity against PFF-induced human SH-SY5Y cells assessed as decrease in autophagosome level measured for 6 hrs by MDC fluorescence assay; format: functional, cell-based
SH-SY5Y [2] = assay: Cytotoxicity against PFF-induced human SH-SY5Y cells assessed as increase in LDH release incubated for 24 hrs by fluorescence based analysis; format: functional
[3] = Drug concentration in ICR mouse brain at 10 mg/kg, iv by LC-MS/MS analysis; format: ADME, organism-based; settings: in vivo
SH-SY5Y [4] = assay: Neuroprotective activity against PFF-induced human SH-SY5Y cells assessed as diffusion of Cy5-PFF and lysosome into cytoplasm measured for 12 hrs by olympus confocal microscopic analysis; format: functional, cell-based
[5] = Tmax in ICR mouse at 10 mg/kg, ip measured upto 7 hrs by HPLC analysis; format: ADME, organism-based; settings: in vivo
[6] = Half life in ICR mouse at 10 mg/kg, iv measured upto 7 hrs by HPLC analysis; format: ADME, organism-based; settings: in vivo
[7] = Half life in ICR mouse at 10 mg/kg, ip measured upto 7 hrs by HPLC analysis; format: ADME, organism-based; settings: in vivo
[8] = Ratio of drug concentration in ICR mouse brain to plasma at 10 mg/kg, iv by LC-MS/MS analysis; format: ADME, organism-based; settings: read-out: BPR
[9] = AUC (0 to infinity) in ICR mouse at 10 mg/kg, iv measured upto 7 hrs by HPLC analysis; format: ADME, organism-based; settings: in vivo
[10] = Drug concentration in ICR mouse plasma at 10 mg/kg, iv by LC-MS/MS analysis; format: ADME, organism-based; settings: in vivo
[11] = AUC (0 to infinity) in ICR mouse at 10 mg/kg, ip measured upto 7 hrs by HPLC analysis; format: ADME, organism-based; settings: in vivo
[12] = Bioavailability in ICR mouse at 10 mg/kg, ip or 10 mg/kg, iv measured upto 7 hrs by HPLC analysis; format: ADME, organism-based; settings: in vivo
[13] = Clearance in ICR mouse plasma at 10 mg/kg, ip measured upto 7 hrs by HPLC analysis; format: ADME, organism-based; settings: in vivo
SH-SY5Y [14] = assay: Induction of ROS level in PFF-induced human SH-SY5Y cells measured for 12 hrs by DCFH-DA staining based analysis; format: functional, cell-based
[15] = Clearance in ICR mouse plasma at 10 mg/kg, iv measured upto 7 hrs by HPLC analysis; format: ADME, organism-based

Row | SMILES | Activity (SH-SY5Y [1]) | Activity (SH-SY5Y [2]) | Ct [3] | Activity (SH-SY5Y [4]) | Tmax [5] | half-life [6] | half-life [7] | Kp [8] | AUC(0-inf) [9] | Cp [10] | AUC [11] | bioavailability [12] | CL [13] | Activity (SH-SY5Y [14]) | clearance [15]
1 | COc1ccc(-n2cc(-c3ccc(NC(=O)c4cc(Br)cc(OC)c4)cc3)nn2)cc1 | inactive | ~30% | – | – | – | – | – | – | – | – | – | – | – | – | –
2 | COc1cc([N+](=O)[O-])ccc1-n1cc(-c2ccc(NC(=O)c3ccc(NC(C)=O)cc3)cc2)nn1 | Active | ~30% | 1.76 µg/mL | Active | 30 min | 48 min | 69 min | 0.1 | 41300 ng·h/mL | 17180 ng/mL | 1793.287 mg·min/L | 72.4% | 2 mL/min/kg | inactive | 4 mL/min/kg

— ChEMBL document CHEMBL5550158, “Novel 4-triazole phenyl amide (4-TPA) molecules: Potent promoters of α-synuclein fibril disassembly” (Eur J Med Chem, 2024)
